Substitutions are numbered along the chain they refer to.
Assays:
AMPK = test: Kinase assay (33P-ATP filter-binding), AMPK; assay type: biochemical; settings: read-out: Kinase Selectivity AMPK
Method: (§1) The kinase assays were carried out briefly as follows. Substrate was prepared in Base Reaction Buffer (20 mM Hepes (pH 7.5), 10 mM MgCl2, 1 mM EGTA, 0.02% Brij35, 0.02 mg/ml BSA, 0.1 mM Na3VO4, 2 mM DTT, 1% DMSO). The indicated kinases was delivered into the substrate solution and allowed to gently mix. Next, the specific compound was delivered in DMSO into the kinase mixture by Acoustic technology (Echo550; nanoliter range), and allowed to incubate for 20 minutes at room temperature. Next, ^33P-ATP was delivered into the reaction mixture to initiate the reaction and allowed to incubate at room temperature. After 2 hours, the reactions were spotted onto P81 ion exchange paper and the kinase activity is detected by the filter-binding method.

PDGFRb = PDGFRb (Homo sapiens, UniProt P09619); test: Kinase assay (33P-ATP filter-binding), PDGFRb; assay type: biochemical; settings: read-out: Kinase Selectivity PDGFRb
PDGFRb, sequence (P09619 33-1106, species assumed): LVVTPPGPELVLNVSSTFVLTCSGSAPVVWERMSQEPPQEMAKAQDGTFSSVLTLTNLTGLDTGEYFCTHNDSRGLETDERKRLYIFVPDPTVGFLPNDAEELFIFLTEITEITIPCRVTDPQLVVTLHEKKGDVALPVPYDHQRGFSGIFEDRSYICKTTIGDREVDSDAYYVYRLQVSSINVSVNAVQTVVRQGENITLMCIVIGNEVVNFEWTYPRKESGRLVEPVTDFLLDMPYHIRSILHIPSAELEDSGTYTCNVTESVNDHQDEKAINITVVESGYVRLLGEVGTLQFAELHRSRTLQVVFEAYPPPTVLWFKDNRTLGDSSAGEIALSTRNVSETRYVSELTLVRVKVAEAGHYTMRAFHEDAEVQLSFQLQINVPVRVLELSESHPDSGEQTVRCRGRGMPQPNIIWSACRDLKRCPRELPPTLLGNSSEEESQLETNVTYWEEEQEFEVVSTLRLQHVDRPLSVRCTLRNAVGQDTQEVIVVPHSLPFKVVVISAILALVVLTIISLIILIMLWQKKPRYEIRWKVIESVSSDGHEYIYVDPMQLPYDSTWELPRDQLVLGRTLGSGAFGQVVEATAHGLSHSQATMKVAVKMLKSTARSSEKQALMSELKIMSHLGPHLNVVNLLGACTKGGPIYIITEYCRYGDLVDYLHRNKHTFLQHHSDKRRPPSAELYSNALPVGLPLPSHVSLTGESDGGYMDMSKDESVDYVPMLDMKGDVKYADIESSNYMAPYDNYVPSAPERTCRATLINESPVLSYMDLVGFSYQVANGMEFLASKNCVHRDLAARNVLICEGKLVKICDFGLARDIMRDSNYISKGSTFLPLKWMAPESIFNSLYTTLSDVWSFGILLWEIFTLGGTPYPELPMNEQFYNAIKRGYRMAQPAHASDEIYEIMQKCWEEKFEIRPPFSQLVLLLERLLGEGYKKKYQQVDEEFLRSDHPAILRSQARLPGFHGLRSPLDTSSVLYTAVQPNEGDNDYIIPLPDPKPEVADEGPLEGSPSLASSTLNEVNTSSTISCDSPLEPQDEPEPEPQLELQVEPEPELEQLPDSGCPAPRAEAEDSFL
Method: as §1

ALK5 = target: T1, ALK5 (Homo sapiens, UniProt P36897); test: Kinase assay (33P-ATP filter-binding), ALK5; assay type: biochemical; settings: read-out: Kinase Selectivity ALK5
T1 sequence (P36897 34-503): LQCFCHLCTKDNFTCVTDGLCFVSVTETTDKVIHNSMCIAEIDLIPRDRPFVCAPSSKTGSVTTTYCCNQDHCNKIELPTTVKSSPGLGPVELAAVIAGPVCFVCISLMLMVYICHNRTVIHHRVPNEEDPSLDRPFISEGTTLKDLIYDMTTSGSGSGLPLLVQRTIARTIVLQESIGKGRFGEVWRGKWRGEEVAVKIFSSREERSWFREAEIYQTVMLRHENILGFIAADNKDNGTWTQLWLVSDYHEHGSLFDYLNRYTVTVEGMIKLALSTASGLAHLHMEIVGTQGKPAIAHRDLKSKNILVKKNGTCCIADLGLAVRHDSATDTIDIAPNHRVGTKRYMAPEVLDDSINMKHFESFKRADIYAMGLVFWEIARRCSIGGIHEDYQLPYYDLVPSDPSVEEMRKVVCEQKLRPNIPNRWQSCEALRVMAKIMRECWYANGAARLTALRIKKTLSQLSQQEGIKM
Method: as §1

ALK6 = ALK6 (Homo sapiens, UniProt O00238); test: Kinase assay (33P-ATP filter-binding), ALK6; assay type: biochemical; settings: read-out: Kinase Selectivity ALK6
ALK6, sequence (O00238 14-502): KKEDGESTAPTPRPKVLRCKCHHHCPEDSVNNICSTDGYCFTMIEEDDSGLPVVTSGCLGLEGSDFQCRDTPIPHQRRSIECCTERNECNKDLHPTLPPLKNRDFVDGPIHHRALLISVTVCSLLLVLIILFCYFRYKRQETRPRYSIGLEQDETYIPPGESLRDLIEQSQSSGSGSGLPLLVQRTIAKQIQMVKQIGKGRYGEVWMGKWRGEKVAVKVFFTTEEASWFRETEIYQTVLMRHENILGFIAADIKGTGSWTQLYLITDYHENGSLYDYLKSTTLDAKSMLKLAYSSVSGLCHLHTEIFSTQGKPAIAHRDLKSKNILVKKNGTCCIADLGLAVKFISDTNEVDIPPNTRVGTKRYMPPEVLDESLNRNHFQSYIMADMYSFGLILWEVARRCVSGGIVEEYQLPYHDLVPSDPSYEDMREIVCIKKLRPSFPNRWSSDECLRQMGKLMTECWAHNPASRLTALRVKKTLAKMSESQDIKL
Method: as §1

ALK2 (R206H) = target: T2, ALK2 (R206H) (Homo sapiens, UniProt Q04771, R206H); test: Kinase assay (33P-ATP filter-binding), ALK2 R206H; assay type: biochemical; settings: R206H mutant, 20 mM; read-out: Kinase Selectivity ALK2 (R206H, 20 mM)
T2 sequence (Q04771 21-509 R206H): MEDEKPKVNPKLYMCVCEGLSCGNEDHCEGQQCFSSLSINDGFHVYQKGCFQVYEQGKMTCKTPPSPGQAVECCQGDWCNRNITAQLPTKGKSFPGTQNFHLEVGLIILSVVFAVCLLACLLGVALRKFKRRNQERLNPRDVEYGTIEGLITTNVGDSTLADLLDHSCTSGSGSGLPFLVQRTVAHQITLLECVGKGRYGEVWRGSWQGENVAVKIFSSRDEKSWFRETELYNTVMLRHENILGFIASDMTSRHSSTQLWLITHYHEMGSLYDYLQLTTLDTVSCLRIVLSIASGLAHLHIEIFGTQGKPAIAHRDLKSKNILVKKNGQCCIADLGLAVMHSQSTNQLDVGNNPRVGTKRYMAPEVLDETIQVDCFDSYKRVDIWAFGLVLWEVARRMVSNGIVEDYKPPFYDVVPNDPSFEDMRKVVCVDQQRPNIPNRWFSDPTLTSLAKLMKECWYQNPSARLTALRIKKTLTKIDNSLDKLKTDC
Outline: (§2)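 Activity was read by spotting reactions onto P81 ion exchange paper (filter binding) after 2 hours at room temperature with 33P-ATP. Kinase and substrate sat in Hepes pH 7.5 buffer with MgCl2, EGTA, Brij35, BSA, Na3VO4, DTT and 1% DMSO; compound was added 20 minutes before ATP.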

ALK1/ACVRL1 = ALK1/ACVRL1 (Homo sapiens, UniProt P37023); test: Kinase assay (33P-ATP filter-binding), ALK1; assay type: biochemical; settings: read-out: Kinase Selectivity ALK1/ACVRL1
ALK1/ACVRL1, sequence (P37023 22-503): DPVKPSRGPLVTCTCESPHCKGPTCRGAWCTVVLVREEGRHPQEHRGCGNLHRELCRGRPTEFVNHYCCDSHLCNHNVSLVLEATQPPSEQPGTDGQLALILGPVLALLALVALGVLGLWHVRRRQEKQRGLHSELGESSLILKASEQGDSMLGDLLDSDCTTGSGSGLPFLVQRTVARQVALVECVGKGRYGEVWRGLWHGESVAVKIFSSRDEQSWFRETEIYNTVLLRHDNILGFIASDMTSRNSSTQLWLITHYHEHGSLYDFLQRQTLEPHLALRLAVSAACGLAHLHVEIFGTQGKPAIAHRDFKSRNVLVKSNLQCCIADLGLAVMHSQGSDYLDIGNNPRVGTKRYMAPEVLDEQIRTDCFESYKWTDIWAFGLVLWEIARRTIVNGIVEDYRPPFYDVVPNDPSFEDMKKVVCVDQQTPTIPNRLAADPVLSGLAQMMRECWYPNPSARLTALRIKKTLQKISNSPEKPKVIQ
Outline: as §2

ALK2/ACVR1 = target: T3, ALK2/ACVR1 (Homo sapiens, UniProt Q04771); test: Kinase assay (33P-ATP filter-binding), ALK2; assay type: biochemical; settings: 20 mM; read-out: Kinase Selectivity ALK2/ACVR1 (20 mM)
T3 sequence (Q04771 21-509): T2 sequence (Q04771 21-509 R206H) with H186R
Outline: as §2

[1] = system: BMP-responsive C2C12 mouse myoblast cells stimulated with BMP4; test: BMP4 cell assay (Id1 promoter-firefly luciferase reporter); assay type: cell-based; settings: Mus musculus; C2C12 cells, BMP4 50 ng/mL, overnight

IC50 (AMPK)	IC50 (PDGFRb)	IC50 (ALK5)	IC50 (ALK6)	IC50 (ALK2 (R206H))	IC50 (ALK1/ACVRL1)	IC50 (ALK2/ACVR1)	IC50 [1]	SMILES
11500 nM	6930 nM	717 nM	188 nM	< 5.1 nM	84.9 nM	< 5.1 nM	29.6 nM	O=C1CNC(=O)C(c2ccc(-c3ccn4c(-c5cccc6ncccc56)cnc4c3)cc2)N1 (stereo not shown) [Compound 36]
> 100000 nM	7340 nM	354 nM	369 nM	< 5.1 nM	42.8 nM	< 5.1 nM	–	Cc1cc(-c2cnc3cc(-c4ccc(C5COCC(C)N5)cc4)ccn23)c2cc(F)cc(F)c2n1 (stereo not shown) [Compound 23]
20000 nM	2820 nM	310 nM	54.5 nM	15.8 nM	197 nM	16.5 nM	13.5 nM	c1cnc2nccc(-c3cnc4cc(-c5ccc(C6CNCCN6)cc5)ccn34)c2c1 (stereo not shown) [Compound 32]
9320 nM	6490 nM	456 nM	231 nM	13.2 nM	723 nM	14.6 nM	34.9 nM	NS(=O)(=O)c1ccc(-c2cnc3cc(-c4ccc(C5CNCCN5)cc4)ccn23)c2ccccc12 (stereo not shown) [Compound 37]
39100 nM	7700 nM	1140 nM	188 nM	< 5.1 nM	61.3 nM	< 5.1 nM	87.7 nM	c1cc(-c2cnc3cc(-c4ccc(C5CNCCN5)cc4)ccn23)c2cccnc2c1 (stereo not shown) [Compound 33]
39100 nM	7700 nM	1140 nM	188 nM	< 5.1 nM	152 nM	< 5.1 nM	87.7 nM	Cc1cc(-c2cnc3cc(-c4ccc(C5COC6(CCNCC6)CN5)cc4)ccn23)c2cc(F)cc(F)c2n1 (stereo not shown) [Compound 16]
18900 nM	21700 nM	3290 nM	429 nM	326 nM	907 nM	29.1 nM	248 nM	Cc1cc(-c2cnc3cc(-c4ccc(C5COC6(CCNC6)CN5)cc4)ccn23)c2cc(F)cc(F)c2n1 (stereo not shown) [Compound 27]

— patent publication US10745400B2, “Inhibition of BMP signaling, compounds, compositions and uses thereof” (Vanderbilt University, priority 2018, dated 2020)
